# Measurements taken from PMC7766104, “Inhibition of Biofilm Formation by Modified Oxylipins from the Shipworm Symbiont Teredinibacter turnerae” (Marine Drugs, 2020).
# Entries after “also recorded” stand apart in the source; their conditions may differ.
# Legend:
# [1] = test system: S. epidermidis RP62A (ATCC 35984) biofilm formation; test: Biofilm inhibition assay (WGA488 staining of formed biofilm); type: cell-based, Staphylococcus epidermidis; settings: for Selectivity Index (MICPlanktonic/MBICBiofilm): S. epidermidis RP62A, MIC planktonic / MBIC biofilm; for MBIC S. epidermidis RP62A (ATCC 35984): lowest concentration causing >98% inhibition of biofilm formation, two independent trials in quadruplicates
# Text: (§1) All seven compounds were subjected to a panel of bioactivity assays to assess their effects on staphylococcal pathogens and mammalian cells (Table 2). […] This fluorescent stain specifically binds to sialic acid and the N-acetylglucosaminyl residues of the biofilm. […] Growth inhibition in the microbial pathogens was quantified by monitoring the conversion of resazurin to the fluorescent resorufin product.
# (§2) The biofilm inhibition assay was done according to the method of Skogman et al. (2012). […] A single colony from the CRA plate was transferred in 50 mL trypticasein soy broth supplemented with glucose (TSBg) and grown overnight at 35 °C, 150 rpm. The turbidity of the culture was adjusted to match the 0.5 McFarland standard (1 × 10^8 cells/mL) and diluted 100-fold prior to inoculation in a 96-well plate. […] TSBg served as the negative control, and positive controls were chloramphenicol (Sigma-Aldrich) for planktonic cells and dispersin B (Kane Biotech) for biofilms. Dispersin B is a 40 kDa glycoside hydrolase which dissolves mature bacterial biofilms. The plates were incubated for 20 h at 37 °C without shaking to facilitate biofilm formation. At the end of the incubation period, the planktonic suspension was transferred to another 96-well plate to assess cell viability. A 20 µL-aliquot of 0.02% resazurin was added to each well and incubated for 30 min at 37 °C, 150 rpm. Fluorescence was measured using a 530 nm excitation filter and a 590 nm emission filter. To quantify the formed biofilm, 100 µL-aliquot of wheat germ agglutinin Alexa Fluor 488 (WGA488) probe (50 µg/mL) was added to each well of the original plate and incubated in the dark at 4 °C for 5 h. At the end of incubation, the plate was washed with sterile PBS (3×) and air-dried at room temperature to remove the unbound WGA488 probe. Bound stain to the biofilm was dissolved in 33% glacial acetic acid and quantified by fluorescence measurement at 485 nm/420 nm excitation filters, and 528 nm/520 nm emission filters. […] This was done in two independent trials with four independent replicates.
# [2] = test system: planktonic S. epidermidis RP62A (ATCC 35984); test: Planktonic cell viability, resazurin (from biofilm assay plate); type: cell-based, Staphylococcus epidermidis; settings: for MIC: Staphylococcus epidermidis, ATCC35984, planktonic cells, lowest concentration with >98% growth inhibition; for bioactivity against microbial pathogens or mammalian cells (in words): statement covers the whole panel of Table 2 (staphylococcal pathogens and MDCK cells)
# Text: as §1, §2
# [3] = test system: Methicillin-resistant S. aureus (ATCC 43300); test: Antimicrobial microdilution assay (resazurin); type: cell-based; settings: Staphylococcus aureus; planktonic; >98% growth inhibition; 24 h; read-out: MIC Methicillin-Resistant S. aureus (ATCC 43,300)
# Protocol: as §1
# (§3) After 24 h of incubation, 0.02% resazurin (20 µL) was added to each well, and the fluorescence was measured at 530 nm excitation and 590 nm emission. MIC is the lowest concentration at which there was no reduction of the rezasurin dye, equivalent to 98% inhibition of microbial growth. Assays were done in two independent trials with four independent replicates.
# S. aureus (ATCC 6538) = test: Antimicrobial microdilution assay (resazurin); type: cell-based; settings: Staphylococcus aureus, ATCC6538; planktonic; >98% growth inhibition; 24 h
# Protocol: as §1, §3
# [4] = test system: MDCK NBL-2 (ATCC CCL-34) cells; test: cells; settings: for IC50: Canis lupus familiaris, MDCK, 72 h, read-out: IC50 MDCK NBL-2 (ATCC CCL-34)
# Text: as §1
# The mammalian antiproliferative assay was done according to Lacerna et al. (2019) and modified from the method of Mossman (1983). […] At 72 h post-incubation, the cells were treated with MTT and the absorbance at 570 nm was read. The IC50 was calculated using GraphPad Prism 5 based on a 4-point sigmoidal non-linear regression analysis of cell viability vs. log concentration of the inhibitor. The assay was done in two independent trials with four independent replicates.
Structure (SMILES),MIC [2] [µg/mL],MIC [3] [µg/mL],MIC (S. aureus (ATCC 6538)) [µg/mL],inhibition of biofilm formation in S. epidermidis (in words) [1],Selectivity Index (MICPlanktonic/MBICBiofilm) [1],MBIC S. epidermidis RP62A (ATCC 35984) [1] [µg/mL],IC50 [4] [µg/mL],antimicrobial activity against planktonic S. epidermidis (in words) [2],cytotoxicity / antiproliferative action in mammalian MDCK cells (in words) [4],bioactivity against microbial pathogens or mammalian cells (in words) [2]
"CCCCCC1OC1C(O)CCCCCCCCCC(=O)O (stereo not shown) [Compound 1, 11-hydroxy-12,13-epoxy-octadecanoic acid]",128,> 128,> 128,inhibited biofilm formation,~4,32,61.7,–,–,–
"CCCCC/C=C/C(=O)CCCCCCCC(=O)O [Compound 2, (E)-9-oxohexadec-10-enoic acid]",> 128,> 128,> 128,inhibited biofilm formation,~1,–,33,–,–,–
"CCCCC[C@@H]1O[C@H]1CCCCCCCCCCC(=O)O [Compound 6, trans-12,13-epoxy-octadecanoic acid]",> 128,> 128,> 128,inhibited biofilm formation,>8,16,> 128,–,no antiproliferative action,–
"CCCCC/C=C\CCCCCCCCCCC(=O)O [Compound 7, 12(Z)-octadecenoic acid]",–,–,–,–,–,>128,–,–,–,–
Cc1onc(-c2ccccc2)c1C(=O)N[C@@H]1C(=O)N2[C@@H]1SC(C)(C)[C@@H]2C(=O)O [oxacillin],–,8,0.5,–,–,–,–,–,–,–

# Second part, led by results:
MIC [2] [µg/mL],MIC [3] [µg/mL],MIC (S. aureus (ATCC 6538)) [µg/mL],Structure (SMILES),inhibition of biofilm formation in S. epidermidis (in words) [1],Selectivity Index (MICPlanktonic/MBICBiofilm) [1],MBIC S. epidermidis RP62A (ATCC 35984) [1] [µg/mL],IC50 [4] [µg/mL],antimicrobial activity against planktonic S. epidermidis (in words) [2],cytotoxicity / antiproliferative action in mammalian MDCK cells (in words) [4],bioactivity against microbial pathogens or mammalian cells (in words) [2]
16,> 128,> 128,"CCCCC/C=C/C(=O)CCCCCCCCCC(=O)O [Compound 3, (E)-11-oxooctadec-12-enoic acid]",inhibited biofilm formation; also recorded: potent but non-selective activity,~1,16,13.6,showed antimicrobial activity,demonstrated cytotoxicity,–
> 128,> 128,> 128,"CCCCCCCCCCCCCCCC(=O)O [Compound 4, palmitic acid]",–,~1,>128,> 128,–,cytotoxic activity,did not show any significant bioactivity
> 128,> 128,> 128,"CCCCCCCCCCCCCCCCCC(=O)O [Compound 5, stearic acid]",–,~1,>128,> 128,–,–,did not show any significant bioactivity
8,–,–,O=C(N[C@H](CO)[C@H](O)c1ccc([N+](=O)[O-])cc1)C(Cl)Cl [chloramphenicol],–,–,–,–,–,–,–
